For eight compounds, Inhibiting level results are on record in patent EP1081131A1 (priority 1998, dated 1999).

Some results are limits rather than exact numbers.

Common to all, as to assay type: cell-based, mycobacteria of tuberculosis
Test [1] concerns Strain resistant to streptomycin and rifamycin. The conditions noted are these: taken from patients, Sverdlovsk Regional SRI of Phthisiopulmonology 1998.
Test [2] deals with Strain resistant to isoniazid. The conditions noted are these: taken from patients, Sverdlovsk Regional SRI of Phthisiopulmonology 1998.
For test [3], the system named is Resistant to isoniazid. Put plainly: Bacteriostatic activity on patient strains (Table 4). The conditions noted are these: taken from patients, Central SRI of Tuberculosis RAMS 1997.
Test [4] concerns Resistant to rifamycin. The test is described as above. To be noted: taken from patients, Central SRI of Tuberculosis RAMS 1997.
Test [5] deals with Semiresistant (resistant to streptomycin, rifamycin and isoniazid). The description is as above. The conditions noted are these: taken from patients, Central SRI of Tuberculosis RAMS 1997.
Test [6] deals with Resistant to streptomycin. The test is described as above. The conditions noted are these: taken from patients, Central SRI of Tuberculosis RAMS 1997.

For `O=Cc1ccc(Cl)cc1OCCOc1cc(Cl)ccc1C=O` [1,2-Bis(2-formyl-5-chlorphenoxy)-ethane], the Inhibiting level came out at 0.4 µg/mL in test [1] and 5.0 µg/mL in test [2].

As for `COc1cc(C=NNC(=O)c2ccccc2)ccc1OCCOc1ccc(C=NNC(=O)c2ccccc2)cc1OC` [1,2-Bis(2-methoxy-4-benzoyl hydrazonomethylphenoxy)-ethane], the figures for the Inhibiting level in test [1] and in test [2] were 0.8 µg/mL and above 5.0 µg/mL, respectively.

For the compound `O=C(NN=Cc1c(OCCOc2ccc3ccccc3c2C=NNC(=O)c2ccccc2)ccc2ccccc12)c1ccccc1` [1,2-Bis[2(benzoyl hydrazonomethylnaphthoxy-2)]-ethane], the Inhibiting level came out at 0.4 µg/mL in test [1] and 5.0 µg/mL in test [2].

With `O=C(NN=Cc1ccccc1OCCOCCOc1ccccc1C=NNC(=O)c1ccncc1)c1ccncc1` [1,5-Bis(2-isonicotinoyl hydrazonomethylphenoxy)-3-oxapentane], the Inhibiting level in test [3] came to 18.80 µg/mL; in test [4] it was 0.20 µg/mL; in test [5], 1.57 µg/mL; in test [6], 1.56 µg/mL.

Regarding `O=C(NN=Cc1ccccc1OCCCCOCCCCOc1ccccc1C=NNC(=O)c1cccnc1)c1cccnc1` [1,9-Bis(2-nicotinoyl hydrazonomethylphenoxy)-5-oxanonon], the Inhibiting level in test [1] was 0.4 µg/mL; in test [2], above 5.0 µg/mL.

For the compound `NNC(=O)c1ccncc1` [Isoniazid, hydrazide of isonicotinic acid, reference compound], the Inhibiting level in test [3] was above 100 µg/mL; in test [4] it was 0.29 µg/mL; in test [1], 0.1 µg/mL; in test [5], 2.125 µg/mL; in test [2] it was 5.0 µg/mL; in test [6] it was 0.29 µg/mL.

For the compound `CO[C@H]1/C=C/O[C@@]2(C)Oc3c(C)c(O)c4c(O)c(cc(O)c4c3C2=O)NC(=O)/C(C)=C\C=C\[C@H](C)[C@H](O)[C@@H](C)[C@@H](O)[C@@H](C)[C@H](OC(C)=O)[C@@H]1C` [Rifamycin, reference compound], in test [1], the Inhibiting level was found to be 20.0 µg/mL.

Regarding `[H]/N=C(/N)N[C@H]1[C@H](O)[C@@H](O)[C@H](O[C@@H]2O[C@@H](C)[C@](O)(C=O)[C@H]2O[C@@H]2O[C@@H](CO)[C@H](O)[C@@H](O)[C@@H]2NC)[C@@H](N/C(N)=N\[H])[C@@H]1O` [Streptomycin, reference compound], the Inhibiting level in test [1] is 10.0 µg/mL; in test [2], above 50.0 µg/mL.
